# Measurements published in patent US9617256B2 (priority 2007, dated 2017).
# Like-named read-outs stand apart in the source and are kept apart here.
# How the values were obtained:
# [1] = test system: APAE006 (strain of P. aeruginosa in which all efflux pumps are inactivated); test: microbe, parasite or virus in culture; format: cell-based; conditions: Pseudomonas aeruginosa, read-out: MIC APAE006, APAE006, all efflux pumps inactivated
# Procedure, shortened: (§1)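 Growth inhibition was scored by CLSI broth microdilution using cation-adjusted Mueller-Hinton broth and a final inoculum between 3×10^5 and 7×10^5 CFU/mL, incubated 18-24 hours at 35° C.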
# [2] = test system: AABA1060 (clinical isolate of Acinetobacter baumannii); test: MIC broth microdilution, AABA1060; format: cell-based; conditions: Acinetobacter baumannii, read-out: MIC AABA1060
# Procedure, shortened: (§2)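 Minimum inhibitory concentrations followed CLSI broth microdilution guidelines: cation-adjusted Mueller-Hinton broth, 2-fold serial drug dilutions, final inoculum 3×10^5–7×10^5 CFU/mL, ambient air at 35° C. for 18-24 hours. Quality-control strains and levofloxacin monitored performance.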
# [3] = test system: AECO063 (ATCC25922 bearing an acrAB mutation); test: microbe, parasite or virus in culture; format: cell-based, E. coli; conditions: Escherichia coli, ATCC25922, read-out: MIC AECO063
# Procedure, shortened: as §2
# [4] = test system: APAE001 (ATCC27853); test: MIC broth microdilution, APAE001; format: cell-based, P. aeruginosa; conditions: Pseudomonas aeruginosa, ATCC27853, read-out: MIC APAE001, APAE001 (ATCC27853)
# Procedure, shortened: as §2
# [5] = test system: AECO001 (ATCC25922); test: MIC broth microdilution, AECO001; format: cell-based, E. coli; conditions: for MIC: Escherichia coli; for Ratio of MICs on AECO001 [Cpd (A = —CHCH3NH2)/Cpd (A = —C(CH3)2NH2)]: MIC of paired compound with A = —CHCH3NH2 divided by MIC of compound with A = —C(CH3)2NH2, n=2 data, pairs identical except for the A moiety
# Procedure, shortened: as §2
# [6] = test system: APAE006 in the presence of 8 micrograms per milliliter of polymyxin B nonapeptide; format: cell-based, P. aeruginosa; conditions: APAE006 with 8 micrograms per milliliter polymyxin B nonapeptide
# Procedure, shortened: as §1
# [7] = test system: ASAU001 (laboratory strain of S. aureus, ATCC29213); test: MIC broth microdilution, ASAU001; format: cell-based; conditions: Staphylococcus aureus, ATCC29213, read-out: MIC ASAU001
# Procedure, shortened: as §2
# [8] = ATCC25922, read-out: MIC AECO001
# [9] = ATCC25922, read-out: MIC AECO001 HSA AGP
Structure (SMILES),MIC [1],MIC [2],MIC [3],MIC [4],"MIC [5, 8]","MIC [5, 9]",MIC APAE006 + PMBN [6],MIC [7],Ratio of MICs on AECO001 [Cpd (A = —CHCH3NH2)/Cpd (A = —C(CH3)2NH2)] [5]
C[C@@H](N)[C@H](NC(=O)c1ccc(C#CC2CC2)cc1)C(=O)NO [Example 137-21],< 2 µg/mL,2 to 16 µg/mL,16 to 64 µg/mL,2 to 16 µg/mL,16 to 64 µg/mL,16 to 64 µg/mL,A (MIC's of 2.0 μg/mL or less = A),16 to 64 µg/mL,
CC(C)(N)[C@H](NC(=O)c1ccc(C#CC#Cc2ccsc2)cc1)C(=O)NO [Example 88-15],< 2 µg/mL,< 2 µg/mL,< 2 µg/mL,< 2 µg/mL,< 2 µg/mL,< 2 µg/mL,A (MIC's of 2.0 μg/mL or less = A),2 to 16 µg/mL,
CC(C)(O)[C@H](NC(=O)c1ccc(C#CC#Cc2ccccn2)cc1)C(=O)NO [Example 88-7],< 2 µg/mL,2 to 16 µg/mL,< 2 µg/mL,2 to 16 µg/mL,< 2 µg/mL,2 to 16 µg/mL,A (MIC's of 2.0 μg/mL or less = A),16 to 64 µg/mL,
"CC(C)(N)[C@H](NC(=O)c1ccc(C#CC2CC2c2ccccc2)cc1)C(=O)NO (stereo partly drawn) [Example 134-1, N—((S)-2-Amino-1-hydroxycarbamoyl-2-methyl-propyl)-4-(2-phenyl-cyclopropylethynyl)-benzamide]",< 2 µg/mL,< 2 µg/mL,< 2 µg/mL,2 to 16 µg/mL,2 to 16 µg/mL,2 to 16 µg/mL,A (MIC's of 2.0 μg/mL or less = A),16 to 64 µg/mL,
CC(C)C#CC#Cc1ccc(C(=O)N[C@H](C(=O)NO)C(C)(C)N)cc1 [Example 91-15],< 2 µg/mL,< 2 µg/mL,< 2 µg/mL,< 2 µg/mL,< 2 µg/mL,2 to 16 µg/mL,A (MIC's of 2.0 μg/mL or less = A),2 to 16 µg/mL,6.5
C[C@@H](N)[C@H](NC(=O)c1ccc(C#C/C=C/c2cccnc2)cc1)C(=O)NO [Example 106-4],< 2 µg/mL,16 to 64 µg/mL,< 2 µg/mL,2 to 16 µg/mL,2 to 16 µg/mL,16 to 64 µg/mL,A (MIC's of 2.0 μg/mL or less = A),16 to 64 µg/mL,
C[C@@H](N)[C@H](NC(=O)c1ccc(C#CC(O)c2ccc(CN3CCOCC3)cc2)cc1)C(=O)NO (stereo partly shown) [Example 137-17],2 to 16 µg/mL,16 to 64 µg/mL,16 to 64 µg/mL,16 to 64 µg/mL,16 to 64 µg/mL,16 to 64 µg/mL,A (MIC's of 2.0 μg/mL or less = A),16 to 64 µg/mL,
"CC(C)(N)[C@H](NC(=O)c1ccc(C#CC#Cc2ccc(O)cc2)cc1)C(=O)NO [Example 83-1, N—((S)-2-Amino-1-hydroxycarbamoyl-2-methyl-propyl)-4-[4-(4-hydroxy-phenyl)-buta-1,3-diynyl]-benzamide]",< 2 µg/mL,< 2 µg/mL,< 2 µg/mL,< 2 µg/mL,< 2 µg/mL,2 to 16 µg/mL,A (MIC's of 2.0 μg/mL or less = A),16 to 64 µg/mL,
"C[C@@H](O)[C@H](NC(=O)c1ccc(C#C/C=C/c2ccncc2)cc1)C(=O)NO [Example 106-1, N-((1S,2R)-2-Hydroxy-1-hydroxycarbamoyl-propyl)-4-((E)-4-pyridin-4-yl-but-3-en-1-ynyl)-benzamide]",< 2 µg/mL,16 to 64 µg/mL,< 2 µg/mL,16 to 64 µg/mL,< 2 µg/mL,2 to 16 µg/mL,A (MIC's of 2.0 μg/mL or less = A),16 to 64 µg/mL,
"C[C@@H](N)[C@H](NC(=O)c1ccc(C#CC#Cc2ccc(OC3CC3)cc2)cc1)C(=O)NO [Example 84-1, N-((1S,2R)-2-Amino-1-hydroxycarbamoyl-propyl)-4-[4-(4-cyclopropoxy-phenyl)-buta-1,3-diynyl]-benzamide]",2 to 16 µg/mL,16 to 64 µg/mL,< 2 µg/mL,16 to 64 µg/mL,< 2 µg/mL,2 to 16 µg/mL,A (MIC's of 2.0 μg/mL or less = A),16 to 64 µg/mL,
"CC(C)(O)[C@H](NC(=O)c1ccc(C#C/C=C/C2CC2)cc1)C(=O)NO [Example 107-1, 4-((E)-4-Cyclopropyl-but-3-en-1-ynyl)-N—((S)-2-hydroxy-1-hydroxycarbamoyl-2-methyl-propyl)-benzamide]",< 2 µg/mL,2 to 16 µg/mL,< 2 µg/mL,< 2 µg/mL,< 2 µg/mL,2 to 16 µg/mL,A (MIC's of 2.0 μg/mL or less = A),16 to 64 µg/mL,
"CCC#CC#Cc1ccc(C(=O)N[C@H](C(=O)NO)C(C)(C)N)cc1 [Example 91-1, N—((S)-2-Amino-1-hydroxycarbamoyl-2-methyl-propyl)-4-hexa-1,3-diynyl-benzamide]",< 2 µg/mL,< 2 µg/mL,< 2 µg/mL,< 2 µg/mL,< 2 µg/mL,< 2 µg/mL,A (MIC's of 2.0 μg/mL or less = A),2 to 16 µg/mL,7.2
C[C@@H](N)[C@H](NC(=O)c1ccc(C#CC#Cc2ccc(CNCCF)cc2)cc1)C(=O)NO [Example 86-5],< 2 µg/mL,2 to 16 µg/mL,< 2 µg/mL,< 2 µg/mL,< 2 µg/mL,16 to 64 µg/mL,A (MIC's of 2.0 μg/mL or less = A),16 to 64 µg/mL,
CC(C)(N)[C@H](NC(=O)c1ccc(/C=C/C#Cc2ccc(CNC3CC3)cc2)cc1)C(=O)NO [Example 113-6],< 2 µg/mL,< 2 µg/mL,< 2 µg/mL,< 2 µg/mL,< 2 µg/mL,< 2 µg/mL,A (MIC's of 2.0 μg/mL or less = A),16 to 64 µg/mL,
CC(C)(N)[C@H](NC(=O)c1ccc(C#CC#CC2CCNCC2)cc1)C(=O)NO [Example 137-23],< 2 µg/mL,16 to 64 µg/mL,16 to 64 µg/mL,2 to 16 µg/mL,16 to 64 µg/mL,16 to 64 µg/mL,B (MIC's of greater than 2.0 μg/mL to 16.0 μg/mL = B),16 to 64 µg/mL,
CC(C)(N)[C@H](NC(=O)c1ccc(C#Cc2ccc(CN3CCS(=O)(=O)CC3)cc2)cc1)C(=O)NO [Example 122-4],< 2 µg/mL,< 2 µg/mL,< 2 µg/mL,< 2 µg/mL,< 2 µg/mL,2 to 16 µg/mL,A (MIC's of 2.0 μg/mL or less = A),16 to 64 µg/mL,
CC(C)(O)[C@H](NC(=O)c1ccc(C#CC#Cc2cncnc2)cc1)C(=O)NO [Example 89-7],< 2 µg/mL,16 to 64 µg/mL,< 2 µg/mL,2 to 16 µg/mL,2 to 16 µg/mL,2 to 16 µg/mL,A (MIC's of 2.0 μg/mL or less = A),16 to 64 µg/mL,
CC(C)(N)[C@H](NC(=O)c1ccc(C#CC#Cc2cccc(F)c2)cc1)C(=O)NO [Example 82-27],< 2 µg/mL,2 to 16 µg/mL,< 2 µg/mL,2 to 16 µg/mL,< 2 µg/mL,2 to 16 µg/mL,A (MIC's of 2.0 μg/mL or less = A),16 to 64 µg/mL,
C[C@@H](N)[C@H](NC(=O)c1ccc(C#CC#CC(C)(C)O)cc1)C(=O)NO [Example 91-30],< 2 µg/mL,16 to 64 µg/mL,2 to 16 µg/mL,< 2 µg/mL,16 to 64 µg/mL,16 to 64 µg/mL,A (MIC's of 2.0 μg/mL or less = A),16 to 64 µg/mL,
C[C@@H](N)[C@H](NC(=O)c1ccc(C#CC#Cc2cnc(N)s2)cc1)C(=O)NO [Example 88-17],< 2 µg/mL,2 to 16 µg/mL,< 2 µg/mL,< 2 µg/mL,< 2 µg/mL,16 to 64 µg/mL,A (MIC's of 2.0 μg/mL or less = A),16 to 64 µg/mL,
C[C@@H](N)[C@H](NC(=O)c1ccc(C#CC#CC2CCC2)cc1)C(=O)NO [Example 91-17],< 2 µg/mL,2 to 16 µg/mL,< 2 µg/mL,< 2 µg/mL,< 2 µg/mL,2 to 16 µg/mL,A (MIC's of 2.0 μg/mL or less = A),16 to 64 µg/mL,
"C[C@@H](N)[C@H](NC(=O)c1ccc(C#Cc2ccc(COCC(F)(F)F)cc2)cc1)C(=O)NO [Example 124-1, N-((1S,2R)-2-Amino-1-hydroxycarbamoyl-propyl)-4-[4-(2,2,2-trifluoro-ethoxymethyl)-phenylethynyl]-benzamide]",< 2 µg/mL,16 to 64 µg/mL,< 2 µg/mL,2 to 16 µg/mL,< 2 µg/mL,2 to 16 µg/mL,A (MIC's of 2.0 μg/mL or less = A),16 to 64 µg/mL,
